Values of other authors, collected in patent US20240424165A1, “NEW COATING OF IMPLANTS” (Universität Münster, priority 2021, published 2024).
Converted amounts (≈) assume the structure as drawn.

Tested on: S. aureus

SMILES: CO[C@H]1/C=C/O[C@@]2(C)Oc3c(C)c(O)c4c(O)c(c(/C=N/N5CCN(C)CC5)c(O)c4c3C2=O)NC(=O)/C(C)=C\C=C\[C@H](C)[C@H](O)[C@@H](C)[C@@H](O)[C@@H](C)[C@H](OC(C)=O)[C@@H]1C [rifampin]
- MIC: 0.06 µg/mL (≈ 0.0729 µM)
